Reference: patent US20240358808A1, “VACCINE FOR SARS-COV-2” (FLOW PHARMA, INC., priority 2021, published 2024)

Target: DRB3*0202 (Homo sapiens, UniProt P01903+P79483, A212P/D57E/F66Y/L67A/R103Q/R218S/R40L/S89Y/T80R/V86D/Y55F/Y59H)
Assay: peptide affinity binding assay (peptide-MHC binding)

DRB3*0202, sequence (P01903 26-254 limits assumed): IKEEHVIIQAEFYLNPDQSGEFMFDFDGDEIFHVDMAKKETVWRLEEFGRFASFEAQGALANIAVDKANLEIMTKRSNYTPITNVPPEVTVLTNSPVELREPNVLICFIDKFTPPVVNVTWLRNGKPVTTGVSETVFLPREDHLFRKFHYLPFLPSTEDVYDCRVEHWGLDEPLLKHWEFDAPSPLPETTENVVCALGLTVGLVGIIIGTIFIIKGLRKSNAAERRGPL
DRB3*0202, sequence (P79483 30-266 R40L/Y55F/D57E/Y59H/F66Y/L67A/T80R/V86D/S89Y/R103Q/A212P/R218S limits assumed): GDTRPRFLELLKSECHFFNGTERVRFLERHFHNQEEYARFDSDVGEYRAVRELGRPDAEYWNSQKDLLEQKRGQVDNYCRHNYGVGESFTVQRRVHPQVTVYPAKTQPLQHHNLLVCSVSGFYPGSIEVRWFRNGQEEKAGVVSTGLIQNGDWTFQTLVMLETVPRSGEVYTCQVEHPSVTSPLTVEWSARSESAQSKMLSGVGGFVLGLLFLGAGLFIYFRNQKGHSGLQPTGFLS

How did the “peptide-MHC binding affinity before and after the addition of an infrared fluorophore ligand” value turn out when CC(C)C[C@H](NC(=O)[C@@H](NC(=O)[C@H](Cc1c[nH]c2ccccc12)NC(=O)[C@H](C)NC(=O)[C@H](C)NC(=O)[C@@H](NC(=O)[C@H](Cc1ccccc1)NC(=O)[C@H](CCCCN)NC(=O)[C@H](C)N)C(C)C)[C@@H](C)O)C(=O)N[C@@H](CCCCN)C(=O)N[C@@H](C)C(=O)N[C@@H](C)C(=O)N[C@@H](C)C(=O)O [PADRE] was run?
Its value is “essentially unchanged”.
